Source: patent publication US20260265246A1 (ICAHN SCHOOL OF MEDICINE AT MOUNT SINAI, priority 2021, published 2026)
Read-outs that look alike come from different tables or passages of the source.

Columns and labels:
5HT2A receptor [1] = biological target: T1, 5HT2A receptor (Homo sapiens, UniProt P28223); experiment: biochemical; assay type: binding; parameters: expressed in transfected cells; crude membranes
5HT2A receptor [2] = biological target: T1, 5HT2A receptor; experiment: cell-based; parameters: expressed in transfected cells; host or cells: HEK293T cells, transient co-transfection; conditions: BRET2 Gαq dissociation; for Emax: HEK-293T, read-out: 5HT2A Gq Emax (%)
[3] = 5HT2A Ki (nM), secondary radioligand binding, Ki from IC50 by Cheng-Prusoff
[4] = 5HT2A Gq EC50 (nM), HEK293T cells
[5] = HEK293T cells, normalized to 5-HT
[6] = 5HT2A Ki (nM), secondary binding assay, Cheng-Prusoff

T1 sequence (P28223 whole entry): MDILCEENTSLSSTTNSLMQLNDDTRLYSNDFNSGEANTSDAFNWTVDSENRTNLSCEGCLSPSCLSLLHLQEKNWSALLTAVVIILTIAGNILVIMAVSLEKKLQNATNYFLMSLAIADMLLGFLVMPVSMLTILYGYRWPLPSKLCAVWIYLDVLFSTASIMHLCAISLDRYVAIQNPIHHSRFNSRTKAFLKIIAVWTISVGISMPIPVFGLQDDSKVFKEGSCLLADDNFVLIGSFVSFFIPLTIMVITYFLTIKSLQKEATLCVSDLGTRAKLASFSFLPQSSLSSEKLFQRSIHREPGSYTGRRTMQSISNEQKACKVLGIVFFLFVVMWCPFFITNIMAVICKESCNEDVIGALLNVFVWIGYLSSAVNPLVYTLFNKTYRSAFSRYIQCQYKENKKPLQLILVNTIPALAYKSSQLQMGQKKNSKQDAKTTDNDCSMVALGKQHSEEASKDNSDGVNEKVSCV

Structure (SMILES) | Ki (5HT2A receptor [1]; [6]) | other results
Clc1cccc2c(C34CNCC3C4)c[nH]c12 (single isomer, unassigned) [Example 278, 3-(3-azabicyclo[3.1.0]hexan-1-yl)-7-chloro-1H-indole] | – | Ki (5HT2A receptor [1]; secondary binding assay, Cheng-Prusoff, read-out: 5HT2A Ki): 33 nM; 5HTA Gq Emax (%) (5HT2A receptor [2]; HEK293T, normalized to 5-HT): 58.2%; EC50 (5HT2A receptor [2]; HEK293T, read-out: 5HTA Gq EC50): 9.23 nM
C1=C(c2c[nH]c3ncc(-c4ccccc4)cc23)CNCC1 [Example 4, 5-phenyl-3-(1,2,5,6-tetrahydropyridin-3-yl)-1H-pyrrolo[2,3-b]pyridine] | – | Ki (5HT2A receptor [1]; [3]): 613 nM; EC50 (5HT2A receptor [2]; [4]): 294 nM; Emax (5HT2A receptor [2]; [5]): 67%
COc1ccnc2[nH]cc(C3=CCCNC3)c12 [Example 10, 4-methoxy-3-(1,2,5,6-tetrahydropyridin-3-yl)-1H-pyrrolo[2,3-b]pyridine] | – | Ki (5HT2A receptor [1]; [3]): 312 nM; EC50 (5HT2A receptor [2]; [4]): 125 nM; Emax (5HT2A receptor [2]; [5]): 66.5%
CCc1ccc2[nH]cc(C3=CCCNC3)c2c1 [Example 25, 5-ethyl-3-(1,2,5,6-tetrahydropyridin-3-yl)-1H-indole] | – | Ki (5HT2A receptor [1]; [3]): 941 nM; EC50 (5HT2A receptor [2]; [4]): 592 nM; Emax (5HT2A receptor [2]; [5]): 73.3%
CCc1ccc2[nH]cc(C3=CCCN(C)C3)c2c1 [Example 26, 5-ethyl-3-(1-methyl-1,2,5,6-tetrahydropyridin-3-yl)-1H-indole] | – | Ki (5HT2A receptor [1]; [3]): 166 nM; EC50 (5HT2A receptor [2]; [4]): 177 nM; Emax (5HT2A receptor [2]; [5]): 64.2%
Cn1cc(C2=CCCNC2)c2cccnc21 [Example 47, 1-methyl-3-(1,2,5,6-tetrahydropyridin-3-yl)-1H-pyrrolo[2,3-b]pyridine] | – | Ki (5HT2A receptor [1]; [3]): 796 nM; EC50 (5HT2A receptor [2]; [4]): 379 nM; Emax (5HT2A receptor [2]; [5]): 48.7%
COc1cccc2c(C3=CCCN(C)C3)c[nH]c12 [Example 53, 7-methoxy-3-(1-methyl-1,2,5,6-tetrahydropyridin-3-yl)-1H-indole] | – | Ki (5HT2A receptor [1]; [3]): 374 nM; EC50 (5HT2A receptor [2]; [4]): 166 nM; Emax (5HT2A receptor [2]; [5]): 77.8%
CN1CCC=C(c2c[nH]c3c(O)cccc23)C1 [Example 60, 3-(1-methyl-1,2,5,6-tetrahydropyridin-3-yl)-1H-indol-7-ol] | – | Ki (5HT2A receptor [1]; [3]): 795 nM; EC50 (5HT2A receptor [2]; [4]): 440 nM; Emax (5HT2A receptor [2]; [5]): 64.3%
Cc1[nH]c2ccccc2c1C1=CCCNC1 [Example 61, 2-methyl-3-(1,2,5,6-tetrahydropyridin-3-yl)-1H-indole] | – | Ki (5HT2A receptor [1]; [3]): 805 nM; EC50 (5HT2A receptor [2]; [4]): 363 nM; Emax (5HT2A receptor [2]; [5]): 67.4%
Cc1[nH]c2ccccc2c1C1=CCCN(C)C1 [Example 63, 2-methyl-3-(1-methyl-1,2,5,6-tetrahydropyridin-3-yl)-1H-indole] | – | Ki (5HT2A receptor [1]; [3]): 823 nM; EC50 (5HT2A receptor [2]; [4]): 162 nM; Emax (5HT2A receptor [2]; [5]): 79%
CCc1[nH]c2ccccc2c1C1=CCCN(C)C1 [Example 65, 2-ethyl-3-(1-methyl-1,2,5,6-tetrahydropyridin-3-yl)-1H-indole] | – | Ki (5HT2A receptor [1]; [3]): 221 nM; EC50 (5HT2A receptor [2]; [4]): 124 nM; Emax (5HT2A receptor [2]; [5]): 51.2%
CN(C)C1CCC=C(c2n[nH]c3c(Cl)cccc23)C1 (stereo not drawn) [Example 170, 3-(7-chloro-1H-indazol-3-yl)-N,N-dimethylcyclohex-3-en-1-amine] | > 10000 nM | –
CCCNC1CCC=C(c2n[nH]c3c(Cl)cccc23)C1 (stereo not drawn) [Example 171, 3-(7-chloro-1H-indazol-3-yl)-N-propylcyclohex-3-en-1-amine] | > 10000 nM | –
Clc1cccc2c(C3=CCCN(C4CCC4)C3)n[nH]c12 [Example 174, 7-chloro-3-(1-cyclobutyl-1,2,5,6-tetrahydropyridin-3-yl)-1H-indazole] | 9760 nM | –
CCCN1CCC=C(c2n[nH]c3c(C#N)cccc23)C1 [Example 176, 3-(1-propyl-1,2,5,6-tetrahydropyridin-3-yl)-1H-indazole-7-carbonitrile] | > 10000 nM | –
CCCN1CCC=C(c2n[nH]c3c(Cl)ccc(F)c23)C1 [Example 177, 7-chloro-4-fluoro-3-(1-propyl-1,2,5,6-tetrahydropyridin-3-yl)-1H-indazole] | 1830 nM | –
Clc1cccc2c(C3=CCCN(C4COC4)C3)n[nH]c12 [Example 178, 7-chloro-3-(1-(oxetan-3-yl)-1,2,5,6-tetrahydropyridin-3-yl)-1H-indazole] | > 10000 nM | –
FC1(F)CC(N2CCC=C(c3n[nH]c4c(Cl)cccc34)C2)C1 [Example 179, 7-chloro-3-(1-(3,3-difluorocyclobutyl)-1,2,5,6-tetrahydropyridin-3-yl)-1H-indazole] | 8620 nM | –
Cc1cccc2c(C34CNCCC3C4(F)F)n[nH]c12 (stereo not drawn) [Example 189, 3-(7,7-difluoro-3-azabicyclo[4.1.0]heptan-1-yl)-7-methyl-1H-indazole] | 6920 nM | –
Fc1cccc2c(C34CNCCC3C4(F)F)n[nH]c12 (stereo not drawn) [Example 190, 3-(7,7-difluoro-3-azabicyclo[4.1.0]heptan-1-yl)-7-fluoro-1H-indazole] | 5370 nM | –
N#Cc1cccc2c(C34CNCCC3C4(F)F)n[nH]c12 (stereo not drawn) [Example 192, 3-(7,7-difluoro-3-azabicyclo[4.1.0]heptan-1-yl)-1H-indazole-7-carbonitrile] | > 10000 nM | –
Cc1cccc2c(C34CNCCC3C4)n[nH]c12 (stereo not drawn) [Example 193, 3-(3-azabicyclo[4.1.0]heptan-1-yl)-7-methyl-1H-indazole] | > 10000 nM | –
CN1CCC2CC2(c2n[nH]c3c(Cl)cccc23)C1 (stereo not drawn) [Example 197, 7-chloro-3-(3-methyl-3-azabicyclo[4.1.0]heptan-1-yl)-1H-indazole] | 1200 nM | –
Cc1cccc2c(C34CNCC3C4(F)F)n[nH]c12 (stereo not drawn) [Example 200] | > 10000 nM | –
Fc1cccc2c(C34CNCC3C4(F)F)n[nH]c12 (stereo not drawn) [Example 201, 3-(6,6-difluoro-3-azabicyclo[3.1.0]hexan-1-yl)-7-fluoro-1H-indazole] | 4310 nM | –

Structure (SMILES) | Ki (5HT2A receptor [1]; [6]) | other results
N#Cc1cccc2c(C34CNCC3C4(F)F)n[nH]c12 (stereo not drawn) [Example 202, 3-(6,6-difluoro-3-azabicyclo[3.1.0]hexan-1-yl)-1H-indazole-7-carbonitrile] | > 10000 nM | –
Cc1cccc2c(C3=CCNCCC3)n[nH]c12 [Example 204, 7-methyl-3-(2,5,6,7-tetrahydro-1H-azepin-4-yl)-1H-indazole] | 158 nM | –
Cc1cccc2c(C3=CCN(C)CCC3)n[nH]c12 [Example 205, 7-methyl-3-(1-methyl-2,5,6,7-tetrahydro-1H-azepin-4-yl)-1H-indazole] | 217 nM | –
Clc1cccc2c(-c3cccnc3)n[nH]c12 [Example 214, 7-chloro-3-(pyridin-3-yl)-1H-indazole] | > 10000 nM | –
c1cc(-c2cncnc2)c2[nH]nc(-c3cncnc3)c2c1 [Example 215, 3,7-di(pyrimidin-5-yl)-1H-indazole] | 3280 nM | –
Clc1cccc2c(-c3cnc[nH]3)n[nH]c12 [Example 217, 7-chloro-3-(1H-imidazol-5-yl)-1H-indazole] | > 10000 nM | –
Clc1cccc2c(-c3cn[nH]c3)n[nH]c12 [Example 218, 7-chloro-3-(1H-pyrazol-4-yl)-1H-indazole] | 1720 nM | –
Clc1cccc2c(C3=CCOCC3)n[nH]c12 [Example 220, 7-chloro-3-(3,6-dihydro-2H-pyran-4-yl)-1H-indazole] | > 10000 nM | –
CN1CCC(c2n[nH]c3c(Cl)cccc23)C1 (stereo not drawn) [Example 222, 7-chloro-3-(1-methylpyrrolidin-3-yl)-1H-indazole] | 6980 nM | –
CN1CC2C=C(c3n[nH]c4c(Cl)cccc34)C1CC2 (stereo not drawn) [Example 224, 6-(7-chloro-1H-indazol-3-yl)-2-methyl-2-azabicyclo[2.2.2]oct-5-ene] | 8880 nM | –
N#Cc1cccc2c(N3CCNCC3)n[nH]c12 [Example 231, 3-(piperazin-1-yl)-1H-indazole-7-carbonitrile] | 3010 nM | –
CN1CCN(c2n[nH]c3c(C#N)cccc23)CC1 [Example 233, 3-(4-methylpiperazin-1-yl)-1H-indazole-7-carbonitrile] | 4830 nM | –
Cc1cccc2c(N3CCN(C)CC3)n[nH]c12 [Example 234, 7-methyl-3-(4-methylpiperazin-1-yl)-1H-indazole] | 259 nM | –
CCCc1cccc2c(C3CCCN(C)C3)c[nH]c12 (stereo not drawn) [Example 235, 3-(1-methylpiperidin-3-yl)-7-propyl-1H-indole] | 5550 nM | –
CCCc1cccc2c(C3=CCCNC3)n[nH]c12 [Example 236] | 294 nM | –
CN1CC=C(c2n[nH]c3c(Cl)cccc23)CC1 [Example 239, 7-chloro-3-(1-methyl-1,2,3,6-tetrahydropyridin-4-yl)-1H-indazole] | 603 nM | –
CN1CCC(c2n[nH]c3c(Cl)cccc23)CC1 [Example 240, 7-chloro-3-(1-methylpiperidin-4-yl)-1H-indazole] | 378 nM | –
CCCN1CC=C(c2n[nH]c3c(Cl)cccc23)CC1 [Example 242, 7-chloro-3-(1-propyl-1,2,3,6-tetrahydropyridin-4-yl)-1H-indazole] | 330 nM | –
CCCN1CCOC(c2c[nH]c3c(Cl)cccc23)C1 (stereo not drawn) [Example 247, 2-(7-chloro-1H-indol-3-yl)-4-propylmorpholine] | 2560 nM | –
CC(C)N1CCOC(c2c[nH]c3c(Cl)cccc23)C1 (stereo not drawn) [Example 248, 2-(7-chloro-1H-indol-3-yl)-4-isopropylmorpholine] | 5890 nM | –
Clc1cccc2c(C3CN4CCC3CC4)c[nH]c12 (stereo not drawn) [Example 251, 3-(7-chloro-1H-indol-3-yl)quinuclidine] | 1100 nM | –
Cc1cccc2c(C3=CN4CCC3CC4)c[nH]c12 [Example 252, 3-(7-methyl-1H-indol-3-yl)-1-azabicyclo[2.2.2]oct-2-ene] | 6020 nM | –
Cc1cccc2c(C3CN4CCC3CC4)c[nH]c12 (stereo not drawn) [Example 253, 3-(7-methyl-1H-indol-3-yl)quinuclidine] | > 10000 nM | –
Cc1cc(Br)cc2c(C3CNC3)c[nH]c12 [Example 265, 3-(azetidin-3-yl)-5-bromo-7-methyl-1H-indole] | 217 nM | –
Clc1cc(Cl)c2[nH]cc(C3CNC3)c2c1 [Example 266, 3-(azetidin-3-yl)-5,7-dichloro-1H-indole] | 244 nM | –
